Reference: US7115658B2 (priority 2002, dated 2006)

Target: T1, Recombinant HCV polymerase (Hepatitis C virus genotype 1b, UniProt P26663)
T1 construct: 2.5 pmoles (0.15 μg) HCV polymerase protein
Experiment: HCV Polymerase Inhibition Assay
Format: biochemical
Conditions: primer/template-directed transcription, 30 minutes at 30° C.; category symbol
Protocol: The above-described compounds were tested for activity with HCV polymerase. Recombinant HCV polymerase was tested for its ability to perform primer/template-directed transcription in assays that contained 30 mM tris-HCl pH 7.2, 10 mM MgCl2, 20 mM NaCl, 1 mM Dithiothreitol (DTT), 0.05% Tween-20, 1% glycerol, 5 pmoles biotin-dG12 (primer), 0.5 pmoles poly(rC)300 (template), 1 μM GTP, 0.1–0.3 uCi α-^32P-GTP, and 2.5 pmoles (0.15 μg) HCV polymerase protein in a final volume of 75 μL. Reactions were initiated by addition of enzyme and incubated 30 minutes at 30° C. Reactions were stopped by addition of 33 mM EDTA, and polynucleotide products were collected by filtration through Diethylaminoethyl (DE) Filtermat papers (Wallac). Unincorporated triphosphate was removed by washing the filters with 5% dibasic sodium phosphate. The filters were counted in a Packard Tri-Lux Microbeta scintillation counter (Packard Bioscience, Meriden, Conn.). Compounds to be tested were added at various concentrations, e.g., 1 μm to 50 μm, from stocks in 10% DMSO-water (final DMSO is 1% in reaction).
IC50 values were estimated from the primary cpm data (collected in triplicate) using the formula: cpm (I)=cpm (no inhibitor)(1−([I]/([I]+IC50))). An IC50 value represents the concentration (in μM) of a compound that provides 50% inhibition of polymerase-directed transcription in the above assay. A percent inhibition value is expressed for a compound where it was impractical to calculate an IC50 value with available data. If the IC50 estimated by the above equation was less than 200 nM, it was recalculated using the following equation, which takes into account the enzyme concentration (30 nM) in the assay: cpm(I)=cpm(no inhibitor)(1−((((I+IC50+30e−9)−sqrt(((I+IC50+30e−9)^2)−4×30e−9×I)))/((2) (30e−9))). Curve fitting was performed using the program KaleidaGraph (Synergy Software, Reading, Pa.).

T1 sequence (P26663 2420-3010): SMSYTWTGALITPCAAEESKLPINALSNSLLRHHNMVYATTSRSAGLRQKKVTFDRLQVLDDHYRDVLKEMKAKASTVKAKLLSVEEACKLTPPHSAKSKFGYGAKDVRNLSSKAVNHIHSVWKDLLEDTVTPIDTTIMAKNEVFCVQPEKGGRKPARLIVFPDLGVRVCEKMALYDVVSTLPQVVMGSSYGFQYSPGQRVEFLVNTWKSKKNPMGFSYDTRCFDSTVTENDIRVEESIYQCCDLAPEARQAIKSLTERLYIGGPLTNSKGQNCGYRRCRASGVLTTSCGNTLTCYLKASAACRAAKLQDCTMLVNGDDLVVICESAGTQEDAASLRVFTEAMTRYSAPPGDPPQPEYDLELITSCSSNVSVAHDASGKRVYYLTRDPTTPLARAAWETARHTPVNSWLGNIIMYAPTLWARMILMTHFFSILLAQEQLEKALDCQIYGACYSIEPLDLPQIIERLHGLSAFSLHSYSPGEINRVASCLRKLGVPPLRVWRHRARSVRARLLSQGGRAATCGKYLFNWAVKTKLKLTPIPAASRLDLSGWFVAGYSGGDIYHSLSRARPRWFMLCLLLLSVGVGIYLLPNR

Compound	IC50 [µM]
CC(C)c1cccc(CCC2(C3CCCC3)CC(=O)CC(=O)O2)c1 (stereo not drawn) [Example 9, 6-Cyclopentyl-6-[2-(3-isopropyl-phenyl)-ethyl]-dihydro-pyran-2,4-dione]	1 to 10
CC(=O)c1ccc(CCC2(C3CCCC3)CC(=O)CC(=O)O2)cc1Cl (stereo not drawn) [Example 61, 6-[2-(4-Acetyl-3-chloro-phenyl)-ethyl]-6-cyclopentyl-dihydro-pyran-2,4-dione]	1 to 10
Cc1cc(SC2=C(O)CC(CCc3ccc(O)cc3)(C3CCCC3)OC2=O)c(C(C)(C)C)cc1C(N)=O (stereo not drawn) [Example 146, 5-tert-butyl-4-{6-Cyclopentyl-4-hydroxy-6-[2-(4-hydroxy-phenyl)-ethyl]-2-oxo-5,6-dihydro-2H-pyran-3-ylsulfanyl}-2-methyl-benzamide]	1 to 10
5-Trifluoromethyl-pyridine-2-sulfonic acid[5-tert-butyl-4-(6,6-dicyclopentyl-4-hydroxy-2-oxo-5,6-dihydro-2H-pyran-3-ylsulfanyl)-2-methyl-phenyl]-amide [Example 185]	10 to 50
Cc1ccc(S(=O)(=O)Oc2cc(C(C)(C)C)c(SC3=C(O)CC(CCc4ccc(O)cc4)(C4CCCCC4)OC3=O)cc2C)cc1 (stereo not drawn) [Example 137, Toluene-4-sulfonic acid 5-tert-butyl-4-(6-Cyclohexyl-4-hydroxy-6-[2-(4-hydroxy-phenyl)-ethyl]-2-oxo-5,6-dihydro-2H-pyran-3-ylsulfanyl)-2-methyl-phenyl ester]	10 to 50
COc1ccc(CCC2(C3CCCC3)CC(O)=C(Sc3nnc(C)s3)C(=O)O2)cc1Cl (stereo not drawn) [Example 125, 6-[2-(3-Chloro-4-methoxy-phenyl)-ethyl]-6-cyclopentyl-4-hydroxy-3-(5-methyl-[1,3,4]thiadiazol-2-ylsulfanyl)-5,6-dihydro-pyran-2-one]	< 1
Cc1noc(C)c1COc1ccc(CCC2(C3CCCC3)CC(O)=CC(=O)O2)cc1 (stereo not drawn) [Example 49, 6-Cyclopentyl-6-(2-{4-[(3,5-dimethylisoxazol-4-yl)methoxy]phenyl}ethyl)-4-hydroxy-5,6-dihydro-2H-pyran-2-one]	10 to 50
Cc1cc(SC2=C(O)CC(CCc3ccco3)(C(C)C)OC2=O)c(C(C)(C)C)cc1CO (stereo not drawn) [Example 134]	1 to 10
COc1cc(F)c(CCC2(C3CCCC3)CC(=O)CC(=O)O2)cc1F (stereo not drawn) [Example 74, 6-Cyclopentyl-6-[2-(2,5-difluoro-4-methoxy-phenyl)-ethyl]-dihydro-pyran-2,4-dione]	1 to 10
COc1ccc(CCC2(C3CCCC3)CC(=O)CC(=O)O2)c(C#N)c1 (stereo not drawn) [Example 7, 2-[2-(2-Cyclopentyl-4,6-dioxo-tetrahydro-pyran-2-yl)-ethyl]-5-methoxy-benzonitrile]	10 to 50
CCCCN(C1=C(O)C[C@@](CCc2cccc(O)c2)(C2CCCC2)OC1=O)c1ccccc1 [Example 157, (S)-3-(butyl-phenyl-amino)-6-Cyclopentyl-4-hydroxy-6-[2-(3-hydroxy-phenyl)-ethyl]-5,6-dihydro-pyran-2-one]	1 to 10
CC(=O)c1ccc(CCC2(C3CCCC3)CC(=O)CC(=O)O2)cc1F (stereo not drawn) [Example 59, 6-[2-(4-Acetyl-3-fluoro-phenyl)-ethyl]-6-cyclopentyl-dihydro-pyran-2,4-dione]	1 to 10
CN(C)S(=O)(=O)c1ccc(CCC2(C3CCCC3)CC(=O)CC(=O)O2)cc1 (stereo not drawn) [Example 76, 4-[2-(2-Cyclopentyl-4,6-dioxo-tetrahydro-pyran-2-yl)-ethyl]-dimethyl-benzenesulfonamide]	10 to 50
COc1cc(CCC2(C3CCCC3)CC(O)=CC(=O)O2)ccc1O (stereo not drawn) [Example 19, 6-Cyclopentyl-4-hydroxy-6-[2-(4-hydroxy-3-methoxy-phenyl)-ethyl]-5,6-dihydro-pyran-2-one]	1 to 10
CC(C)CCC1(C2CCCC2)CC(O)=CC(=O)O1 (stereo not drawn) [Example 151, 6-Cyclopentyl-4-hydroxy-6-(3-methyl-butyl)-5,6-dihydro-pyran-2-one]	> 50
